The results in this text go back to patent US20070082883A1, “HIV protease inhibitors” (THE BOARD OF TRUSTEES OF THE UNIVERSITY OF ILLINOIS, priority 2002, published 2007).

Each structure is given as a SMILES string. Non-standard residues stand in square brackets, D forms with d. Residues, ends and D or L forms follow the SMILES beside them. Phe(4-NO2) = N[C@@H](Cc1ccc([N+](=O)[O-])cc1)C(=O)O; Nle = CCCC[C@H](N)C(=O)O; 2Abz = Nc1ccccc1C(=O)O

One data set addresses T1, HIV-1 protease (Human immunodeficiency virus type 1 group M subtype B, UniProt P04585).
T1 construct: made in house; host or cells: E. coli BL21 (dE3)pLysS, pET30a vector
In words: Kinetic measurements of the cleavage of anthranilyl fluorogenic substrate by HIV-1 protease. The class given is biochemical. Particulars: purified refolded HIV-1 protease; read-out: Michaelis constant for the substrate Km.
Description: The HIV-1 protease gene was subcloned into the pET30a vector (Novagen) and then transformed into BL21 (dE3)pLysS cells for protein expression. Protein expression and purification were followed according to Tang's procedure (Hong et al., Biochemistry, 1996, 35, 10627-10633). […] The inclusion body containing some bacterial proteins was thoroughly washed by using TRITON X-100, solubilized in BM urea and passed through the Q-sepharose column to remove the bacterial proteins which interfered with subsequent refolding steps. HIV-1 protease was refolded from the urea to an active form by dialysis. As a final step, gel filtration chromatography was used to remove impurities after refolding. Activities of purified HIV-1 protease were examined using a fluorogenic substrate, 2-aminobenzoyl-Thr-Ile-Nle-Phe(pNO2)-Gln-Arg-NH2 (Novabiochem). […] Using the first rate equation, kcat is calculated. In the condition of So<<Km, v=Eo(kcat/Km)So, where Eo is the total enzyme concentration, and So is the substrate concentrate.
For the molecule `CCCC[C@H](NC(=O)[C@@H](NC(=O)[C@@H](NC(=O)c1ccccc1N)[C@@H](C)O)[C@@H](C)CC)C(=O)N[C@@H](Cc1ccc([N+](=O)[O-])cc1)C(=O)N[C@@H](CCC(N)=O)C(=O)N[C@@H](CCCNC(=N)N)C(N)=O` [2-aminobenzoyl-Thr-Ile-Nle-Phe(pNO2)-Gln-Arg-NH2] (H-[2Abz]TI[Nle][Phe(4-NO2)]QR-NH2), the Michaelis-Menten constant (Km) was 4.5 µM.

A further data set deals with T1, HIV-1 protease. In words: HIV-1 Protease Inhibition Assay. The class given is biochemical. Particulars: cells marked (pM) in a column headed nM. In a few lines: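 Recombinant HIV-1 protease expressed in E. coli BL21(DE3)pLysS, refolded from urea and purified. Activity followed with fluorogenic substrate 2-aminobenzoyl-Thr-Ile-Nle-Phe(pNO2)-Gln-Arg-NH2 under So<<Km.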
`COc1ccc(S(=O)(=O)N(C[C@H]2CCC(=O)N2)C[C@@H](O)[C@H](Cc2ccccc2)NC(=O)OC2CO[C@H]3OCC[C@@H]23)cc1` (stereo partly shown) [Compound 273]: the midpoint of inhibition, the IC50, lay at 17 pM.

For the molecule `Nc1ccc(S(=O)(=O)N(C[C@H]2CCC(=O)N2)C[C@@H](O)[C@H](Cc2ccccc2)NC(=O)OC2CO[C@H]3OCC[C@@H]23)cc1` (stereo partly shown) [Compound 276], the IC50 was 20 pM.

In the case of `Nc1ccc(S(=O)(=O)N(C[C@H]2CCC(=O)N2)C[C@@H](O)[C@H](Cc2ccccc2)NC(=O)OC2CC[C@H]3OCC[C@@H]23)cc1` (stereo partly shown) [Compound 281], the IC50 was found to be 26 pM.

`COc1ccc(S(=O)(=O)N(C[C@@H]2CCC(=O)N2)C[C@@H](O)[C@H](Cc2ccccc2)NC(=O)OC2CO[C@H]3OCC[C@@H]23)cc1` (stereo partly shown) [Compound 283] had a half-maximal inhibitory concentration (IC50) of 14 pM. Against the preceding molecule, the IC50 is about 1.9-fold lower.

Staying with this data set, now noted: fluorogenic substrate assay.
With `CC(C)CN(C[C@@H](O)[C@H](Cc1ccccc1)NC(=O)OC1CC2CCO[C@@H]2C1)S(=O)(=O)c1ccc(O)c(O)c1` (stereo partly shown) [Compound 88], the affinity corresponds to a Ki of 1.2 nM.

In turn, `CNCc1ccc(S(=O)(=O)N(CC(C)C)C[C@@H](O)[C@H](Cc2ccccc2)NC(=O)OC2CO[C@H]3OCCC23)cc1` (stereo partly shown) [Compound 119] had an IC50 of 3500 pM and a Ki of 1.1 nM.

`COc1ccc(S(=O)(=O)N(C[C@@H]2CCC(=O)N2)C[C@@H](O)[C@H](Cc2ccccc2)NC(=O)OC(C)(C)C)cc1` [Compound 272] came in with a 50% inhibitory concentration (IC50) of 3420 pM. This lies in the single-digit nanomolar range.

Consider `O=C1CC[C@H](CN(C[C@@H](O)[C@H](Cc2ccccc2)NC(=O)OC2CO[C@H]3OCC[C@@H]23)S(=O)(=O)c2ccc([N+](=O)[O-])cc2)N1` (stereo partly shown) [Compound 274], for which the IC50 turned out to be 100 pM.

For the molecule `O=C1CC[C@@H](CN(C[C@@H](O)[C@H](Cc2ccccc2)NC(=O)OC2CO[C@H]3OCC[C@@H]23)S(=O)(=O)c2ccc([N+](=O)[O-])cc2)N1` (stereo partly shown) [Compound 275], the half-inhibitory concentration (IC50) was 370 pM. Compared with the last molecule, the IC50 is about 3.7-fold higher.

The molecule `COc1ccc(S(=O)(=O)N(C[C@H]2CCC(=O)N2)C[C@@H](O)[C@H](Cc2ccccc2)NC(=O)OC2CC[C@H]3OCC[C@@H]23)cc1` (stereo partly shown) [Compound 277] yielded an IC50 of 100 pM.

Consider `COc1ccc(S(=O)(=O)N(C[C@@H]2CCC(=O)N2)C[C@@H](O)[C@H](Cc2ccccc2)NC(=O)OC2CC[C@H]3OCC[C@@H]23)cc1` (stereo partly shown) [Compound 278], for which the IC50 amounted to 160 pM.

The molecule `O=C1CC[C@H](CN(C[C@@H](O)[C@H](Cc2ccccc2)NC(=O)OC2CC[C@H]3OCC[C@@H]23)S(=O)(=O)c2ccc([N+](=O)[O-])cc2)N1` (stereo partly shown) [Compound 279] returned a half-inhibitory concentration (IC50) of 340 pM.

With `CC(C)(C)OC(=O)N[C@@H](Cc1ccccc1)[C@H](O)CN(C[C@H]1CCC(=O)N1)S(=O)(=O)c1ccc([N+](=O)[O-])cc1` [Compound 307a, {(1S)-Benzyl-(2R)-hydroxy-3-[(4-nitrobenzenesulfonyl)-(5-oxopyrrolidin-(2R)-ylmethyl)amino]propyl}-carbamic acid tert-butyl ester], 7000 pM corresponded to half-maximal inhibition (IC50).

With `CC(C)(C)OC(=O)N[C@@H](Cc1ccccc1)[C@H](O)CN(C[C@@H]1CCC(=O)N1)S(=O)(=O)c1ccc([N+](=O)[O-])cc1` [Compound 307b], half-maximal inhibition (IC50) was put at 12000 pM.

`CC(C)CN(C[C@@H](O)[C@H](Cc1ccccc1)NC(=O)OC(C)(C)C)C1CC2(CCCC2)NC1=O` (stereo partly shown) [Compound 528b] returned an IC50 of 386000 pM.

System in a further data set: not given
Assay: not given
Details: not given
The molecule `CC(C)CN(C[C@@H](O)[C@H](Cc1ccccc1)NC(=O)OC1CC2CCO[C@@H]2C1)S(=O)(=O)c1ccc(O)c(O)c1` (stereo partly shown) [Compound 88] yielded a melting point of 80 to 82 °C.

On to `CNCc1ccc(S(=O)(=O)N(CC(C)C)C[C@@H](O)[C@H](Cc2ccccc2)NC(=O)OC2CO[C@H]3OCCC23)cc1` (stereo partly shown) [Compound 119], for which the melting point is 57 to 62 °C.
